{"source": "paper PMC5531531", "about": "“A synthetic cationic antimicrobial peptide inhibits inflammatory response and the NLRP3 inflammasome by neutralizing LPS and ATP” (PLoS ONE, 2017)", "test_system": "E. coli-LPS-activated RAW 264.7 macrophages", "assay": "MAPK, PKC-α/δ and IκB-α phosphorylation (Western blot)", "type": "cell-based, mouse", "settings": "2 μM GW-A2 30 min, then E. coli LPS 0.1 μg/ml 0–60 min", "method": "The protein expression levels of iNOS, COX-2, ERK1/2, JNK1/2, p38, IκB-α, PKC, caspase-1 and the phosphorylation levels of ERK1/2, JNK1/2, p38, PKC-α, PKC-δ, IκB-α were determined by Western blotting as described in detail previously.\nFig 2 Effects of GW-A2 on LPS-mediated signaling pathways. (A-C) RAW 264.7 macrophages were incubated for 30 min with or without 2 μM of GW-A2, followed by 0–60 min with or without 0.1 μg/ml of E. coli LPS. The phosphorylation levels of (A) ERK1/2, JNK1/2 and p38, (B) PKC-α and PKC-δ, and (C) I-κB-α were assayed by western blotting. (D) RAW-Blue^TM cells were incubated for 30 min with or without GW-A2, followed by 24 h with or without 0.1 μg/ml of E. coli LPS. The activation levels of NF-κB were measured by an NF-κB reporter assay. The data are expressed as the mean ± SD of three independent experiments. The western blotting results shown are a representative experiment of three independent experiments. * and ** indicate significant differences, representing p < 0.05 and p < 0.01, respectively compared to LPS alone.", "note": "No end group written: not given here."}
{"sequence": "GAKYAKIIYNYLKKIANALW [GW-A2]", "values": [{"measurement": "Phosphorylation levels of ERK1/2, JNK1/2 and p38", "setting": "Fig 2A", "value": "reduced"}, {"measurement": "Phosphorylation levels of PKC-α and PKC-δ", "setting": "Fig 2B", "value": "reduced"}, {"measurement": "Phosphorylation levels of IκB-α", "setting": "Fig 2C", "value": "inhibited"}]}
